Earlier results, collected in patent US20150025027A1 (PHARTRIALS PERQUISAS FARMACÊUTICAS LTDA, priority 2012, published 2015).
≈ marks a conversion by molar mass, not a printed value.

Experiments:
[1] = not given; remark: listed apart in the source
[2] = not given; remark: listed apart in the source
[3] = not given; remark: listed apart in the source
[4] = high-risk, obese population; vs. 10% in comparison group

Compound	log P	solubility in water [1] [mg/mL]	time to peak plasma concentration ([2]; after oral administration) [h]	time to plasma concentrations in the state of equilibrium ([2]; days of treatment) [days]	share of the dose administered per metabolite ([2]; each of six metabolites) [%]	dose metabolized ([2]; forming six metabolites) [%]	dose administered eliminated through the urine ([2]; in vivo) [%]	oral bioavailability ([2]; oral) [%]	weight loss in humans [3]	cardiovascular outcomes (AMI, CVA, cardiorespiratory failure or death) in patients receiving the drug [4] [%]	half-life ([2]; in vivo) [h]
CC1(C)OC2CO[C@@]3(COS(N)(=O)=O)OC(C)(C)O[C@H]3C2O1 (stereo partly shown) [Topiramate]	−0.7	9.8 (≈ 28.9 mM)	2	4	≤ 5	30	70	80	effective in weight loss	–	–
CC(C)CC(N(C)C)C1(c2ccc(Cl)cc2)CCC1 (stereo not shown) [sibutramine]	–	–	–	–	–	–	–	–	–	11.4	–
CC(NC(C)(C)C)C(=O)c1cccc(Cl)c1 (stereo not shown) [Bupropion, 1-(3-chlorophenyl)-2-{(1,1-dimethyl)-amino]-1-propanone]	3.6	312 (≈ 1300 mM)	–	–	–	–	–	–	–	–	24
